Data: patent US20250074913A1, “PYRAZOLE DERIVATIVES AS STING AGONISTS” (Hoffmann-La Roche Inc., priority 2022, published 2025)

Test system: interferon regulatory factor (IRF) pathway in THP1-Dual™ cells
Experiment: THP1-Dual reporter gene assay (Agonist_THP1_EC50)
Format: cell-based
Settings: Homo sapiens, 20-24 hrs compound treatment, Lucia luciferase (IRF) readout
From the text: This is the cellular reporter assay to evaluate compounds' agonism to interferon regulatory factor (IRF) pathway in THP1-Dual™ cells (InvivoGen, cat number thpd-nfis). THP1-Dual™ cells were derived from the human THP-1 monocyte cell line by stable integration lucia luciferase gene, a new secreted luciferase reporter gene, under the control of an ISG54 (interferon-stimulated gene) minimal promoter in conjunction with five interferon (IFN)-stimulated response elements. As a result, THP1-Dual™ cells allow the study of the IRF pathway, by assessing the activity of Lucia luciferase. Lucia luciferase protein is readily measurable in the cell culture supernatant when using QUANTI-Luc™ (InvivoGen, cat: rep-qlcg-500).
After 20-24 hrs compound treatment in THP1-Dual cells, the compounds' agonism to IRF pathway and cell toxicity were tested by measuring luminescence and OD 450 on an Envision plate reader.
On the day of experiment, 30 μL of test medium (RPMI 1640, 2 mM L-glutamine, 25 mM HEPES, […] heat-inactivated fetal bovine serum) was dispensed in a white 384-well plate (Grenier, cat: 781098) containing the serially diluted compounds (final 1% DMSO) transferred by the Echo550 machine. Then 30 μL of cell suspension (˜33,000 cells, 1.1×10^6 cells/mL) per well was added immediately by thermo multidrop combi dispenser for incubation 20-24 h at 37° C., […]. At the end of the incubation, 10 μL of cellular supernatant was transferred to proxiplate 384-plus plate for IRF detection, and then 10 μL of QUANTI-Luc™ Gold solution was added to the plate that proceeded with the measurement immediately. To detect cell viability, 30 μL of the CCK-8 working solution (Dojindo Molecular Technologies, cat: CK04-20) was added to the cell plate, which was Incubated for 2 hrs in the incubator to measure the absorbance at 450 nm using Envision.

| EC50 [nM] | Structure (SMILES) |
| --- | --- |
| 27 | Cc1cc2c(C(N)=O)nn(-c3nc(-c4c(O)c(C)nn4CCc4ccc(CO)cc4)n[nH]3)c2cn1 [Example 68, 1-[3-[4-hydroxy-2-[2-[4-(hydroxymethyl)phenyl]ethyl]-5-methyl-pyrazol-3-yl]-1H-1,2,4-triazol-5-yl]-5-methyl-pyrazolo[3,4-c]pyridine-3-carboxamide] |
| 65 | COCC#CCCn1nc(C)c(O)c1-c1n[nH]c(-n2nc(C(N)=O)c3cc(C)ncc32)n1 [Example 81, 1-[3-[4-hydroxy-2-(5-methoxypent-3-ynyl)-5-methyl-pyrazol-3-yl]-1H-1,2,4-triazol-5-yl]-5-methyl-pyrazolo[3,4-c]pyridine-3-carboxamide] |
| 58 | CCCCn1nc(C)c(O)c1-c1nc(-n2nc(C(N)=O)c3cc(C)ncc32)n(C)n1 [Example 49, 1-[5-(2-butyl-4-hydroxy-5-methyl-pyrazol-3-yl)-2-methyl-1,2,4-triazol-3-yl]-5-methyl-pyrazolo[3,4-c]pyridine-3-carboxamide] |
| 49 | CCCn1nc(C)c(O)c1-c1nc(-c2nc(C(N)=O)n3cc(C)ncc23)co1 [Example 85, 1-[2-(4-hydroxy-5-methyl-2-propyl-pyrazol-3-yl)oxazol-4-yl]-6-methyl-imidazo[1,5-a]pyrazine-3-carboxamide] |
| 30 | Cc1cn2c(C(N)=O)nc(-c3nc(-c4c(O)c(C)nn4CCc4nccs4)n[nH]3)c2cn1 [Example 90, 1-[3-[4-hydroxy-5-methyl-2-(2-thiazol-2-ylethyl)pyrazol-3-yl]-1H-1,2,4-triazol-5-yl]-6-methyl-imidazo[1,5-a]pyrazine-3-carboxamide] |
| 49 | COc1cccc(CCn2nc(C)c(O)c2-c2nc(-n3nc(C(N)=O)c4cc(C)ncc43)co2)c1 [Example 75, 1-(2-(4-hydroxy-1-(3-methoxyphenethyl)-3-methyl-1H-pyrazol-5-yl)oxazol-4-yl)-5-methyl-1H-pyrazolo[3,4-c]pyridine-3-carboxamide] |
| 13 | Cc1cc2c(C(N)=O)nn(-c3nc(-c4c(O)c(C)nn4CCc4ccccc4F)n[nH]3)c2cn1 [Example 56, 1-[3-[2-[2-(2-fluorophenyl)ethyl]-4-hydroxy-5-methyl-pyrazol-3-yl]-1H-1,2,4-triazol-5-yl]-5-methyl-pyrazolo[3,4-c]pyridine-3-carboxamide] |
| 15 | Cc1cn2c(C(N)=O)nc(-c3nc(-c4c(O)c(C)nn4CCc4cccnc4)n[nH]3)c2cn1 [Example 72, 1-[3-[4-hydroxy-5-methyl-2-[2-(3-pyridyl)ethyl]pyrazol-3-yl]-1H-1,2,4-triazol-5-yl]-6-methyl-imidazo[1,5-a]pyrazine-3-carboxamide] |
| 31 | COc1cccc(CCn2nc(C)c(O)c2-c2n[nH]c(-n3nc(C(N)=O)c4cc(C)ncc43)n2)c1 [Example 54, 1-[3-[4-hydroxy-2-[2-(3-methoxyphenyl)ethyl]-5-methyl-pyrazol-3-yl]-1H-1,2,4-triazol-5-yl]-5-methyl-pyrazolo[3,4-c]pyridine-3-carboxamide] |
| 39 | Cc1cn2c(C(N)=O)c(F)c(-c3nc(-c4c(O)c(C)nn4CCc4cccnc4)n[nH]3)c2cn1 [Example 73, 7-fluoro-8-[3-[4-hydroxy-5-methyl-2-[2-(3-pyridyl)ethyl]pyrazol-3-yl]-1H-1,2,4-triazol-5-yl]-3-methyl-pyrrolo[1,2-a]pyrazine-6-carboxamide] |
| 23 | Cc1cc2c(C(N)=O)nn(-c3nc(-c4c(O)c(C)nn4CCc4cccc(C#N)c4)n[nH]3)c2cn1 [Example 60, 1-[3-[2-[2-(3-cyanophenyl)ethyl]-4-hydroxy-5-methyl-pyrazol-3-yl]-1H-1,2,4-triazol-5-yl]-5-methyl-pyrazolo[3,4-c]pyridine-3-carboxamide] |
| 44 | COC(=O)c1ccc(CCn2nc(C)c(O)c2-c2n[nH]c(-n3nc(C(N)=O)c4cc(C)ncc43)n2)cc1 [Example 62, Methyl 4-[2-[5-[5-(3-carbamoyl-5-methyl-pyrazolo[3,4-c]pyridin-1-yl)-1H-1,2,4-triazol-3-yl]-4-hydroxy-3-methyl-pyrazol-1-yl]ethyl]benzoate] |
| 179 | Cc1cc2c(C(N)=O)nn(-c3coc(-c4c(O)c(C)nn4CCc4ccc(CN5CCOCC5)cc4)n3)c2cn1 [Example 88, 1-[2-[4-hydroxy-5-methyl-2-[2-[4-(morpholinomethyl)phenyl]ethyl]pyrazol-3-yl]oxazol-4-yl]-5-methyl-pyrazolo[3,4-c]pyridine-3-carboxamide] |
| 26 | Cc1cc2c(C(N)=O)nn(-c3nc(-c4c(O)c(C)nn4CC=C(F)F)n[nH]3)c2cn1 [Example 63, 1-(3-(1-(3,3-difluoroallyl)-4-hydroxy-3-methyl-1H-pyrazol-5-yl)-1H-1,2,4-triazol-5-yl)-5-methyl-1H-pyrazolo[3,4-c]pyridine-3-carboxamide] |
| 27 | Cc1cc2c(C(N)=O)nn(-c3nc(-c4c(O)c(C)nn4CCC(F)F)n[nH]3)c2cn1 [Example 66, 1-(3-(1-(3,3-difluoropropyl)-4-hydroxy-3-methyl-1H-pyrazol-5-yl)-1H-1,2,4-triazol-5-yl)-5-methyl-1H-pyrazolo[3,4-c]pyridine-3-carboxamide] |

The remaining lines, values behind:

| Structure (SMILES) | EC50 [nM] |
| --- | --- |
| Cc1cc2c(C(N)=O)nn(-c3nc(-c4c(O)c(C)nn4C4CC4)n[nH]3)c2cn1 [Example 33, 1-[3-(2-cyclopropyl-4-hydroxy-5-methyl-pyrazol-3-yl)-1H-1,2,4-triazol-5-yl]-5-methyl-pyrazolo[3,4-c]pyridine-3-carboxamide] | 135 |
| CCn1nc(C)c(O)c1-c1noc(-c2cc(C(N)=O)c3cc(C)ncn23)n1 [Example 27, 7-[3-(2-ethyl-4-hydroxy-5-methyl-pyrazol-3-yl)-1,2,4-oxadiazol-5-yl]-3-methyl-pyrrolo[1,2-c]pyrimidine-5-carboxamide] | 292 |
| Cc1nn(CCn2ccnn2)c(-c2n[nH]c(-c3nc(C(N)=O)cc4c3cnn4C)n2)c1O [Example 36, 4-[3-[4-hydroxy-5-methyl-2-[2-(triazol-1-yl)ethyl]pyrazol-3-yl]-1H-1,2,4-triazol-5-yl]-1-methyl-pyrazolo[4,3-c]pyridine-6-carboxamide] | 240 |
| CCn1nc(C)c(O)c1-c1nc(-n2cc(C(N)=O)c3cc(C)ncc32)co1 [Example 29, 1-[2-(2-ethyl-4-hydroxy-5-methyl-pyrazol-3-yl)oxazol-4-yl]-5-methyl-pyrrolo[2,3-c]pyridine-3-carboxamide] | 618 |
| Cc1cc2c(C(N)=O)nn(-c3nc(-c4c(O)c(C)nn4CCCF)n[nH]3)c2cn1 [Example 41, 1-[3-[2-(3-fluoropropyl)-4-hydroxy-5-methyl-pyrazol-3-yl]-1H-1,2,4-triazol-5-yl]-5-methyl-pyrazolo[3,4-c]pyridine-3-carboxamide] | 48 |
| CCn1nc(C)c(O)c1-c1n[nH]c(-c2nc(C(N)=O)n3cc(C)ncc23)n1 [Example 1, 1-[3-(2-ethyl-4-hydroxy-5-methyl-pyrazol-3-yl)-1H-1,2,4-triazol-5-yl]-6-methyl-imidazo[1,5-a]pyrazine-3-carboxamide] | 202 |
| Cc1cc2c(C(N)=O)nn(-c3nc(-c4c(O)c(C)nn4CCc4ccncc4)n[nH]3)c2cn1 [Example 46, 1-[3-[4-hydroxy-5-methyl-2-[2-(4-pyridyl)ethyl]pyrazol-3-yl]-1H-1,2,4-triazol-5-yl]-5-methyl-pyrazolo[3,4-c]pyridine-3-carboxamide] | 97 |
| Cc1cn2c(C(N)=O)c(F)c(-c3nc(-c4c(O)c(C)nn4CCC#N)n[nH]3)c2cn1 [Example 30, 8-[3-[2-(2-cyanoethyl)-4-hydroxy-5-methyl-pyrazol-3-yl]-1H-1,2,4-triazol-5-yl]-7-fluoro-3-methyl-pyrrolo[1,2-a]pyrazine-6-carboxamide] | 321 |
| Cc1cc2c(C(N)=O)nn(-c3nc(-c4c(O)c(C)nn4CCc4ccccc4)nn3C)c2cn1 [Example 48, 1-[5-[4-hydroxy-5-methyl-2-(2-phenylethyl)pyrazol-3-yl]-2-methyl-1,2,4-triazol-3-yl]-5-methyl-pyrazolo[3,4-c]pyridine-3-carboxamide] | 64 |
| CCn1nc(C)c(O)c1-c1n[nH]c(-c2nc(C(N)=O)n3cc(Cl)ncc23)n1 [Example 18, 6-chloro-1-[3-(2-ethyl-4-hydroxy-5-methyl-pyrazol-3-yl)-1H-1,2,4-triazol-5-yl]imidazo[1,5-a]pyrazine-3-carboxamide] | 548 |
| CCn1nc(C)c(O)c1-c1n[nH]c(-c2nc(C(N)=O)n3cc(C)ccc23)n1 [Example 19, 1-[3-(2-ethyl-4-hydroxy-5-methyl-pyrazol-3-yl)-1H-1,2,4-triazol-5-yl]-6-methyl-imidazo[1,5-a]pyridine-3-carboxamide] | 408 |
| CCn1nc(C)c(O)c1-c1nc(-c2nc(C(N)=O)n3cc(C)ncc23)co1 [Example 9, 1-[2-(2-ethyl-4-hydroxy-5-methyl-pyrazol-3-yl)oxazol-4-yl]-6-methyl-imidazo[1,5-a]pyrazine-3-carboxamide] | 829 |
